From patent US8507502B2, “Fused bicyclic and tricyclic pyrimidine compounds as tyrosine kinase inhibitors” (National Health Research Institutes, priority 2008, dated 2013)
Read-outs that look alike come from different tables or passages of the source.

Columns and labels:
HCC827 cells = assay: HCC827 cell viability, MTS assay; assay type: cell-based; conditions: Homo sapiens, 96-h incubation, read-out: IC50 (concentration which causes 50% of the cell death)
Procedure: HCC827 cell viability was examined by the MTS assay (Promega, Madison, Wis., USA). 1000 HCC827 cells in 100 μl RPMI1640 with 10% FBS medium were seeded in each well of a 96-well plate. After 96-h incubation with a test compound, the cells were further incubated with 20 μl of a MTS/PMS mixture (MTS/PMS ratio: 20:1) in each well of the 96-well plate for 2 h at 37° C. in a humidified incubator with 5% CO2 to allow viable cells to convert the tetrazolium salt (MTS) into formazan. The amount/concentration of formazan, which indicates the number of live cells, was determined by measuring its absorbance at 490 nm using a PerkinElmer Victor2 plate reader (PerkinElmer, Shelton, Conn., USA).

GST-EGFR-KD^WT = target: T1, GST-EGFR-KD^WT (Homo sapiens, UniProt P00533); assay: EGFR kinase assay (Kinase-Glo); assay type: biochemical; conditions: 5 μM ATP, read-out: IC50 (concentration at which activity of 50% of EGFR is inhibited)
T1 construct: 50 ng GST-EGFR-KD^WT proteins; made in house
T1 sequence (P00533 712-979 limits assumed): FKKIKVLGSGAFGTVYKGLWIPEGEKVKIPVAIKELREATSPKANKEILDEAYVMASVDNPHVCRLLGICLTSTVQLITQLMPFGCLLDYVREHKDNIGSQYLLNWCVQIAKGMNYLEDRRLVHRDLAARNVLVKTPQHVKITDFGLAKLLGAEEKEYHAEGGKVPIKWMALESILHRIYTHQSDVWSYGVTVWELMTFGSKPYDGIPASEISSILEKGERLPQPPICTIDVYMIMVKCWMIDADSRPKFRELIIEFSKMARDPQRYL
Procedure: Following incubation, 50 μl Kinase-Glo Plus Reagent (Promega) was added and the mixture was further incubated at 25° C. for 20 min.

GST-EGFR-KD^L858R/T790M = target: T2, GST-EGFR-KD^L858R/T790M (Homo sapiens, UniProt P00533, L858R/T790M); assay: Double mutant EGFR kinase assay (Kinase-Glo); assay type: biochemical; conditions: 1 μM ATP, read-out: IC50 (concentration at which activity of 50% of mutant EGFR is inhibited)
T2 construct: residues from 696 to 1022 and with L858R/T790M; made in house; host or cells: Sf9 insect cells (baculovirus)
T2 sequence (P00533 696-1022 T790M/L858R): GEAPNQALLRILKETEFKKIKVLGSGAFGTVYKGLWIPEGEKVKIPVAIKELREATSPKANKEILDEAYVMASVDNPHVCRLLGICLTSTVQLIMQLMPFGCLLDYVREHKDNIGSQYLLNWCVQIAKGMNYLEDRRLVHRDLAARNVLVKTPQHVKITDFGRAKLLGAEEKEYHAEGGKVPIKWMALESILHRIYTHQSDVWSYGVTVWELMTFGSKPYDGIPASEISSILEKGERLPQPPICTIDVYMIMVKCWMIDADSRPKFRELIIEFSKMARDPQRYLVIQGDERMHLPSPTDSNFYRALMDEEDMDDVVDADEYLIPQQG
Procedure: Following incubation, 50 μL Kinase-Glo Plus Reagent (Promega) was added and the mixture was incubated at 25° C. for 20 min.

Structure (SMILES) | IC50 (HCC827 cells) | IC50 (GST-EGFR-KD^WT; range given in mixed units) | IC50 (GST-EGFR-KD^L858R/T790M) | IC50 (GST-EGFR-KD^WT)
OC[C@@H](Nc1ncnc2sc3c(c12)CCCC3)c1ccccc1 [Compound 1, S-2-phenyl-2-(5,6,7,8-tetrahydro-benzo[4,5]thieno[2,3-d]pyrimidin-4-ylamino)-ethanol] | 100 to 300 nM | 101 to 900 nM | – | –
OC[C@@H](Nc1ncnc2sc3c(c12)CCC3)c1ccccc1 [Compound 3] | 301 to 999 nM | – | – | –
Cc1sc2ncnc(N[C@H](CO)c3ccccc3)c2c1C [Compound 4, (S)-2-(5,6-dimethylthieno[2,3-d]pyrimidin-4-ylamino)-2-phenylethanol] | 301 to 999 nM | – | – | –
OC[C@@H](Nc1ncnc2sc(-c3ccccc3)cc12)c1ccccc1 [Compound 7] | – | 101 to 900 nM | – | –
OC[C@@H](Nc1ncnc2sc(-c3ccccc3)c(Cl)c12)c1ccccc1 [Compound 8] | – | 101 to 900 nM | – | –
C=CC(=O)N1CCc2c(sc3ncnc(N[C@H](CO)c4ccccc4)c23)C1 [Compound 12, 1-[4-(2-hydroxy-1-phenyl-ethylamino)-5,8-dihydro-6H-9-thia-1,3,7-triaza-fluoren-7-yl]-propenone] | 1 to 99 nM | – | 10 to 499 nM | < 59 nM
C=CC(=O)N1CCc2c(sc3ncnc(N[C@H](CO[Si](C)(C)C(C)(C)C)c4ccccc4)c23)C1 [Compound 15] | 301 to 999 nM | 101 to 900 nM | – | –
O=C(O)[C@@H](Nc1ncnc2sc3c(c12)CCCC3)c1ccccc1 [Compound 18] | – | 101 to 900 nM | – | –
O=C(O)[C@@H](Nc1ncnc2sc3c(c12)CCC3)c1ccccc1 [Compound 20] | – | 101 to 900 nM | – | –
O=C(O)[C@@H](Nc1ncnc2sc(-c3ccccc3)cc12)c1ccccc1 [Compound 22] | – | 101 to 900 nM | – | –
CC[C@@H](Nc1ncnc2sc3c(c12)CCCC3)c1ccccc1 [Compound 23] | 301 to 999 nM | 101 to 900 nM | – | –
OC[C@@H](Nc1ncnc2oc(-c3ccccc3)c(-c3ccccc3)c12)c1ccccc1 [Compound 31, S-2-(5,6-diphenyl-furo[2,3-d]pyrimidin-4-ylamino)-2-phenyl-ethanol] | 301 to 999 nM | 101 to 900 nM | – | –
COc1ccc(-c2c(-c3ccccc3)oc3ncnc(N[C@H](CO)c4ccccc4)c23)cc1 [Compound 35] | 100 to 300 nM | 101 to 900 nM | – | –
COc1ccc(-c2oc3ncnc(N[C@H](CO)c4ccccc4)c3c2-c2ccc(OC)cc2)cc1 [Compound 36] | – | – | – | 60 to 100 nM
CC(=O)Nc1ccc(-c2c(-c3ccccc3)oc3ncnc(N[C@H](CO)c4ccccc4)c23)cc1 [Compound 37] | 100 to 300 nM | – | – | 60 to 100 nM
CC(=O)Nc1cccc(-c2c(-c3ccccc3)oc3ncnc(N[C@H](CO)c4ccccc4)c23)c1 [Compound 38] | 100 to 300 nM | 101 to 900 nM | – | –
OC[C@@H](Nc1ncnc2oc(-c3ccccc3)c(-c3ccco3)c12)c1ccccc1 [Compound 40] | 301 to 999 nM | 101 to 900 nM | – | –
OC[C@@H](Nc1ncnc2oc(-c3ccccc3)c(-c3ccoc3)c12)c1ccccc1 [Compound 41] | 100 to 300 nM | 101 to 900 nM | – | –
CC(=O)OC[C@@H](Nc1ncnc2oc(-c3ccccc3)c(Br)c12)c1ccccc1 [Compound 44] | 301 to 999 nM | – | – | –
OC[C@@H](Nc1ncnc2oc(-c3ccccc3)c(Cl)c12)c1ccccc1 [Compound 45] | – | 101 to 900 nM | – | –
COC(=O)[C@@H](Nc1ncnc2oc(-c3ccccc3)c(-c3ccccc3)c12)c1ccccc1 [Compound 46] | 301 to 999 nM | – | – | –

Structure (SMILES) | IC50 (HCC827 cells) | IC50 (GST-EGFR-KD^WT; range given in mixed units) | IC50 (GST-EGFR-KD^L858R/T790M) | IC50 (GST-EGFR-KD^WT)
CCOC(=O)[C@@H](Nc1ncnc2oc(-c3ccccc3)c(-c3ccccc3)c12)c1ccccc1 [Compound 47] | 301 to 999 nM | – | – | –
O=C(O)[C@@H](Nc1ncnc2oc(-c3ccccc3)c(-c3ccccc3)c12)c1ccccc1 [Compound 50] | – | – | – | < 59 nM
O=C(O)[C@@H](Nc1ncnc2oc(-c3ccccc3)c(Br)c12)c1ccccc1 [Compound 53] | – | – | – | < 59 nM
CC[C@@H](Nc1ncnc2oc(-c3ccccc3)c(-c3ccccc3)c12)c1ccccc1 [Compound 54] | 301 to 999 nM | – | – | –
CC[C@@H](Nc1ncnc2oc(-c3ccccc3)cc12)c1ccccc1 [Compound 56] | 301 to 999 nM | – | – | –
O=C(O)/C=C\C(=O)N1CCc2c(sc3ncnc(N[C@H](CO)c4ccccc4)c23)C1 [Compound 61] | – | 101 to 900 nM | – | –
C=CS(=O)(=O)N1CCc2c(sc3ncnc(N[C@H](CO)c4ccccc4)c23)C1 [Compound 63] | 100 to 300 nM | – | 500 to 2500 nM | 60 to 100 nM
C=CC(=O)N1CCc2c(sc3ncnc(N[C@H](C)c4ccccc4)c23)C1 [Compound 64] | 1 to 99 nM | – | 500 to 2500 nM | < 59 nM
O=C(/C=C/CN1CCCCC1)N1CCc2c(sc3ncnc(N[C@H](CO)c4ccccc4)c23)C1 [Compound 65] | 1 to 99 nM | – | 500 to 2500 nM | < 59 nM
CCOC(=O)/C=C/C(=O)N1CCc2c(sc3ncnc(N[C@H](CO)c4ccccc4)c23)C1 [Compound 68] | 1 to 99 nM | – | – | –
C=CC(=O)Nc1ccc(-c2c(-c3ccccc3)oc3ncnc(N[C@H](CO)c4ccccc4)c23)cc1 [Compound 118, S—N-{4-[4-(2-Hydroxy-1-phenyl-ethylamino)-6-phenyl-furo[2,3-d]pyrimidin-5-yl]-phenyl}-acrylamide] | 301 to 999 nM | – | – | 60 to 100 nM
C=CC(=O)Nc1ccc(-c2nc3c(N[C@H](CO)c4ccccc4)ncnc3o2)cc1 [Compound 154] | – | 101 to 900 nM | – | –
CN(C)C/C=C/C(=O)N1CCc2c(sc3ncnc(N[C@H](CO[Si](C)(C)C(C)(C)C)c4ccccc4)c23)C1 [Compound 186] | 301 to 999 nM | – | – | 60 to 100 nM
CN(C)C/C=C/C(=O)N1CCc2c(sc3ncnc(N[C@H](CO)Cc4ccccc4)c23)C1 [Compound 192] | 1 to 99 nM | 101 to 900 nM | – | –
CN(C)C/C=C/C(=O)N1CCc2c(sc3ncnc(N[C@H](CCO)c4ccccc4)c23)C1 [Compound 194] | 1 to 99 nM | – | – | < 59 nM
CCN(CC)C/C=C/C(=O)N1CCc2c(sc3ncnc(N[C@H](CCO)c4ccccc4)c23)C1 [Compound 199] | – | – | – | < 59 nM
CC(C)NC/C=C/C(=O)N1CCc2c(sc3ncnc(N[C@H](C)c4ccccc4)c23)C1 [Compound 204] | 1 to 99 nM | 101 to 900 nM | – | –
C[C@@H](Nc1ncnc2sc3c(c12)CCN(C(=O)/C=C/CNc1ccccc1)C3)c1ccccc1 [Compound 206] | 301 to 999 nM | 101 to 900 nM | – | –
C[C@@H](Nc1ncnc2sc3c(c12)CCN(C(=O)/C=C/CN=[N+]=[N-])C3)c1ccccc1 [Compound 208] | 1 to 99 nM | – | – | < 59 nM
C[C@@H](Nc1ncnc2sc3c(c12)CCN(C(=O)/C=C/CN(C)C)C3)c1ccc(Br)cc1 [Compound 209] | 1 to 99 nM | – | – | < 59 nM
C[C@@H](Nc1ncnc2sc3c(c12)CCN(C(=O)/C=C/CNN1CCCCC1)C3)c1ccccc1 [Compound 212] | 1 to 99 nM | – | – | < 59 nM

Structure (SMILES) | IC50 (HCC827 cells) | IC50 (GST-EGFR-KD^WT; range given in mixed units) | IC50 (GST-EGFR-KD^L858R/T790M) | IC50 (GST-EGFR-KD^WT)
C[C@@H](Nc1ncnc2sc3c(c12)CCN(C(=O)/C=C/CN(C)CCO)C3)c1ccccc1 [Compound 213] | 1 to 99 nM | – | – | < 59 nM
CC(=O)OC/C=C/C(=O)N1CCc2c(sc3ncnc(N[C@H](C)c4ccccc4)c23)C1 [Compound 214] | 1 to 99 nM | – | – | < 59 nM
CCN(C/C=C/C(=O)N1CCc2c(sc3ncnc(N[C@H](C)c4ccccc4)c23)C1)CCO [Compound 216] | 1 to 99 nM | – | – | < 59 nM
CCC[C@@H](Nc1ncnc2sc3c(c12)CCN(C(=O)/C=C/CN(C)C)C3)c1ccccc1 [Compound 217] | 1 to 99 nM | – | – | < 59 nM
CN(C)C/C=C/C(=O)N1CCc2c(sc3ncnc(N[C@H](CCOCc4ccccc4F)c4ccccc4)c23)C1 [Compound 218] | 1 to 99 nM | – | – | < 59 nM
CN(C)C/C=C/C(=O)N1CCc2c(sc3ncnc(N[C@H](COCc4ccc(F)cc4)c4ccccc4)c23)C1 [Compound 219] | 1 to 99 nM | – | – | < 59 nM
C/C=C/C(=O)N1CCc2c(sc3ncnc(N[C@H](COCc4cccc(F)c4)c4ccccc4)c23)C1 [Compound 220] | – | – | – | 60 to 100 nM
CN(C)C/C=C/C(=O)N1CCc2c(sc3ncnc(N[C@H](COCc4ccncc4)c4ccccc4)c23)C1 [Compound 224] | 1 to 99 nM | – | – | < 59 nM
COC[C@@H](Nc1ncnc2sc3c(c12)CCN(C(=O)/C=C/CN(C)C)C3)c1ccccc1 [Compound 229] | 1 to 99 nM | – | – | < 59 nM
CCN(CC)C/C=C/C(=O)N1CCc2c(sc3ncnc(N[C@H](COC)c4ccccc4)c23)C1 [Compound 230] | 1 to 99 nM | – | – | 60 to 100 nM
CN(C)C/C=C/C(=O)N1CCc2c(sc3ncnc(N[C@H](COCc4cccnc4)c4ccccc4)c23)C1 [Compound 231] | 1 to 99 nM | – | – | < 59 nM
C=CC(=O)Nc1ccc(-c2c(-c3ccccc3)oc3ncnc(N[C@H](C)c4ccccc4)c23)cc1 [Compound 238] | 1 to 99 nM | 101 to 900 nM | – | –
C=CC(=O)Nc1cccc(-c2c(-c3ccccc3)oc3ncnc(N[C@H](COC(=O)C=C)c4ccccc4)c23)c1 [Compound 240] | – | 101 to 900 nM | 10 to 499 nM | –
CC#CC(=O)Nc1cccc(-c2c(-c3ccccc3)oc3ncnc(N[C@H](COC)c4ccccc4)c23)c1 [Compound 242] | – | 101 to 900 nM | – | –
C=CC(=O)Nc1cccc(-c2coc3ncnc(N[C@H](CO)c4ccccc4)c23)c1 [Compound 244] | 301 to 999 nM | – | – | 60 to 100 nM
C=CC(=O)Nc1cccc(-c2cc3c(N[C@H](CO)c4ccccc4)ncnc3s2)c1 [Compound 245] | 100 to 300 nM | – | – | < 59 nM
C=CC(=O)Nc1cccc(-c2csc3ncnc(N[C@H](CO)c4ccccc4)c23)c1 [Compound 246] | 1 to 99 nM | – | – | < 59 nM
C=CC(=O)Nc1cccc(-c2c(-c3ccccc3)oc3ncnc(N(C)C(COC)c4ccccc4)c23)c1 (stereo not drawn) [Compound 247] | – | 101 to 900 nM | – | –
COCCN(C)C/C=C/C(=O)N1CCc2c(sc3ncnc(N[C@H](CO)c4ccccc4)c23)C1 [Compound 327] | – | – | – | < 59 nM
